Reference: US20050250801A1, “Method of treating cancer with azaspirane compositions” (priority 2003, published 2005)
Read-outs that look alike come from different tables or passages of the source.

Columns and labels:
Format in all cases: cell-based
RPMI-8226 = assay: NCI in vitro SRB assay, Leukemia; settings: for CC50 / GI50: Homo sapiens
Experimental: (§1) An in vitro assay which tested the ability of N,N,-diethyl-8,8-dipropyl-2-azaspiro[4,5]decane-2-propanamine dimaleate (Compound 1) to inhibit the growth of known cancer cell lines was performed by the National Cancer Institute in accordance with standard procedures. See: Lin, Z. X., Hoult, J. R., and Raman, A. Sulphorhodamine B assay for measuring proliferation of a pigmented melanocyte cell line and its application to the evaluation of crude drugs used in the treatment of vitiligo. J Ethnopharmacol. 66: 141-150, 1999. Briefly, selected tumor cell lines were cultured in media containing five different concentrations of Compound 1. After 48 hours of continuous exposure, a sulforhodamine B (SRB) assay was used to estimate cell viability or growth via optical measurements.
(§2) From the measurements, the following values were determined: 1) the concentration of Compound 1 at which a tumor cell growth inhibition of 50% (relative to control) occurs (GI50), 2) the concentration of Compound 1 at which no growth occurs (total growth inhibition, TGI), and 3) the concentration of Compound 1 at which the […] (LC 50). […] FIG. 6 illustrates, graphically, tumor cell growth as a function of Compound 1 concentration of the scanned tumor cell lines.

CCRF-CEM = assay: NCI in vitro SRB assay, Leukemia; settings: for GI50 / CC50: Homo sapiens
Experimental: as §1, §2

786-0 = assay: NCI in vitro SRB assay, Renal Cancer; settings: for CC50 / GI50: Homo sapiens
Experimental: as §1, §2

SN12C = assay: NCI in vitro SRB assay, Renal Cancer; settings: for GI50 / CC50: Homo sapiens
Experimental: as §1, §2

[1] = RPMI-8226, Log10 conc -4.0 Moles/L
[2] = RPMI-8226, Log10 conc -5.0 Moles/L
[3] = RPMI-8226, Log10 conc -6.0 Moles/L
[4] = RPMI-8226, Log10 conc -7.0 Moles/L
[5] = RPMI-8226, Log10 conc -8.0 Moles/L
[6] = read-out: Log10 GI50 (converted)
[7] = read-out: Log10 LC50 (converted)

SMILES: CCCC1(CCC)CCC2(CCN(CCCN(CC)CC)C2)CC1.O=C(O)/C=C\C(=O)O.O=C(O)/C=C\C(=O)O [Compound 1, N,N,-diethyl-8,8-dipropyl-2-azaspiro[4,5]decane-2-propanamine dimaleate]
- CC50 (RPMI-8226; RPMI-8226, read-out: LC50): > 100000 nM
- CC50 (RPMI-8226; RPMI-8226, read-out: Log10 LC50 (converted)): > 100000 nM
- GI50 (RPMI-8226; RPMI-8226, read-out: GI50): 283 nM
- GI50 (RPMI-8226; RPMI-8226, read-out: Log10 GI50 (converted)): 282 nM
- Log10 TGI (RPMI-8226; RPMI-8226): −4.53
- TGI (RPMI-8226; RPMI-8226): 29800 nM
- Mean Optical Densities (RPMI-8226; [1]): 0.185
- Percent Growth (RPMI-8226; [1]): −3%
- Mean Optical Densities (RPMI-8226; [2]): 0.218
- Percent Growth (RPMI-8226; [2]): 3%
- Mean Optical Densities (RPMI-8226; [3]): 0.371
- Percent Growth (RPMI-8226; [3]): 21%
- Mean Optical Densities (RPMI-8226; [4]): 0.843
- Percent Growth (RPMI-8226; [4]): 74%
- Mean Optical Densities (RPMI-8226; [5]): 0.918
- Percent Growth (RPMI-8226; [5]): 83%
- Log10 TGI (CCRF-CEM): >−4.00
- TGI (CCRF-CEM): >100000 nM
- GI50 (CCRF-CEM; read-out: GI50): 1090 nM
- CC50 (CCRF-CEM; read-out: LC50): > 100000 nM
- GI50 (CCRF-CEM; [6]): 1100 nM
- CC50 (CCRF-CEM; [7]): > 100000 nM
- Mean Optical Densities (CCRF-CEM; Log10 conc -4.0 Moles/L): 0.115
- Percent Growth (CCRF-CEM; Log10 conc -4.0 Moles/L): 6%
- Mean Optical Densities (CCRF-CEM; Log10 conc -5.0 Moles/L): 0.158
- Percent Growth (CCRF-CEM; Log10 conc -5.0 Moles/L): 13%
- Mean Optical Densities (CCRF-CEM; Log10 conc -6.0 Moles/L): 0.409
- Percent Growth (CCRF-CEM; Log10 conc -6.0 Moles/L): 51%
- Mean Optical Densities (CCRF-CEM; Log10 conc -7.0 Moles/L): 0.597
- Percent Growth (CCRF-CEM; Log10 conc -7.0 Moles/L): 81%
- Mean Optical Densities (CCRF-CEM; Log10 conc -8.0 Moles/L): 0.611
- Percent Growth (CCRF-CEM; Log10 conc -8.0 Moles/L): 83%
- Log10 TGI (786-0; 786-0): −5.48
- TGI (786-0; 786-0): 3330 nM
- Mean Optical Densities (786-0; 786-0, Log10 conc -4.0 Moles/L): 0.132
- Percent Growth (786-0; 786-0, Log10 conc -4.0 Moles/L): −64%
- Mean Optical Densities (786-0; 786-0, Log10 conc -5.0 Moles/L): 0.121
- Percent Growth (786-0; 786-0, Log10 conc -5.0 Moles/L): −67%
- Mean Optical Densities (786-0; 786-0, Log10 conc -6.0 Moles/L): 0.934
- Percent Growth (786-0; 786-0, Log10 conc -6.0 Moles/L): 73%
- Mean Optical Densities (786-0; 786-0, Log10 conc -7.0 Moles/L): 1.091
- Percent Growth (786-0; 786-0, Log10 conc -7.0 Moles/L): 94%
- Mean Optical Densities (786-0; 786-0, Log10 conc -8.0 Moles/L): 1.111
- Percent Growth (786-0; 786-0, Log10 conc -8.0 Moles/L): 96%
- CC50 (786-0; 786-0, read-out: LC50): 7570 nM
- CC50 (786-0; 786-0, read-out: Log10 LC50 (converted)): 7590 nM
- GI50 (786-0; 786-0, read-out: GI50): 1470 nM
- GI50 (786-0; 786-0, read-out: Log10 GI50 (converted)): 1480 nM
- Log10 TGI (SN12C): −5.55
- TGI (SN12C): 2820 nM
- GI50 (SN12C; read-out: GI50): 1290 nM
- CC50 (SN12C; read-out: LC50): 6170 nM
- GI50 (SN12C; [6]): 1290 nM
- CC50 (SN12C; [7]): 6170 nM
- Mean Optical Densities (SN12C; Log10 conc -4.0 Moles/L): 0.036
- Percent Growth (SN12C; Log10 conc -4.0 Moles/L): −90%
- Mean Optical Densities (SN12C; Log10 conc -5.0 Moles/L): 0.069
- Percent Growth (SN12C; Log10 conc -5.0 Moles/L): −81%
- Mean Optical Densities (SN12C; Log10 conc -6.0 Moles/L): 0.668
- Percent Growth (SN12C; Log10 conc -6.0 Moles/L): 66%
- Mean Optical Densities (SN12C; Log10 conc -7.0 Moles/L): 0.701
- Percent Growth (SN12C; Log10 conc -7.0 Moles/L): 73%
- Mean Optical Densities (SN12C; Log10 conc -8.0 Moles/L): 0.717
